# Values quoted from earlier work as cited in patent US9029598B2 (Colgate-Palmolive Company, priority 2009, dated 2015).
# Settings: room temperature, natural partial pressure (3.5×10^−4 atmosphere)
structure (smiles),measurement,value
O=C=O [Carbon dioxide],maximum concentration of carbon dioxide in water,12 µM
